Test results from ChEMBL document CHEMBL5385957, “Pleonotoquinones, Cytotoxic Oxepinenaphthoquinones from Pleonotoma jasminifolia” (J Nat Prod, 2024).

Key:
HCT-116 = experiment: Cytotoxicity against human HCT-116 cells assessed as cell growth inhibition; assay type: functional, cell-based
[1] = Selectivity index, ratio of IC50 for human MRC5 cells to IC50 for human HepG2 cells; assay type: toxicity; conditions: MRC5 cells versus HepG2 cells, read-out: Ratio IC50
HepG2 = experiment: Cytotoxicity against human HepG2 cells assessed as cell growth inhibition; assay type: functional, cell-based
[2] = Selectivity index, ratio of IC50 for human MRC5 cells to IC50 for human HCT-116 cells; assay type: toxicity; conditions: MRC5 cells versus HCT-116 cells, read-out: Ratio IC50
[3] = Cytotoxicity against human MRC5 cells assessed as cell growth inhibition; assay type: toxicity, cell-based

SMILES	IC50 (HCT-116)	selectivity ratio [1]	IC50 (HepG2)	selectivity ratio [2]	IC50 [3]
COc1c(O)ccc2c(=O)c3cccc(C)oc=3c(=O)c12	2.6 µM	4.1	1.9 µM	3.1	8.2 µM
COc1ccc2c(c1OC)C(=O)c1cc(C)ccc1C2=O	> 10 µM	–	> 10 µM	–	> 10 µM
COc1c(O)ccc2c1C(=O)c1cc(C)ccc1C2=O	> 10 µM	–	> 10 µM	–	> 10 µM
COc1ccc2c(=O)c3cccc(C)oc=3c(=O)c2c1OC	4.3 µM	1.9	6.4 µM	2.9	> 10 µM
COc1cccc2c1C(=O)c1c(O)c3c(c(O)c1C2=O)C[C@@](O)(C(=O)CO)C[C@@H]3O[C@H]1C[C@H](N)[C@H](O)[C@H](C)O1 [DOXORUBICIN]	–	–	0.7 µM	–	3.5 µM
